Measured values: patent US20250345277A1, “Ionizable Liposome, Preparation Thereof, and Application Thereof in Gene Delivery” (MAXIRNA (ZHEJIANG) TECHNOLOGY CO. LTD., priority 2021, published 2025)

Tests used:
[1] = Entrapment efficiency of LNP preparation encapsulating EGFP mRNA; assay type: physicochemical; conditions: LNP ionizable lipid/DOPE/cholesterol/DSPE-PEG2000 35/16/46.5/2.5 mol% encapsulating EGFP mRNA
Method: The ionizable lipid compound of Example 1 was dissolved in ethanol with DOPE, cholesterol and DSPE-PEG2000 (all purchased from AVT (Shanghai) Pharmaceutical Technology Co., Ltd.) at a molar ratio of 35:16:46.5:2.5 to prepare ethanol lipid solution, and enhanced green fluorescent protein (EGFP) mRNAs (Shanghai Maximna Pharmaceutical Engineering Co., Ltd., JN-4201) were diluted in 20 mM citrate buffer (pH=6.1) to obtain mRNA aqueous solution. Ethanol lipid solution and mRNA aqueous solution were mixed at a volume ratio of 1:3 by using a microfluidic device (Micro&Nano (Shanghai) Instrument Technology Co., Ltd., model: INano™ML), LNPs were prepared with a weight ratio of approximately 10:1 between total lipids and mRNAs. The medium was replaced by ultrafiltration, ethanol was removed and volumed with DPBS. Finally, the lipid nanoparticles were filtered through a 0.2 μm sterile filter to obtain a LNP formulation encapsulating eGFP mRNA using ionizable lipid/DOPE/cholesterol/DSPE-PEG2000 (35/16/46.5/2.5 mol %), the concentration of mRNAs being 0.002 mg/mL-0.5 mg/mL. […]

DC2.4 cells = experiment: In vitro transfection of DC2.4 cells with EGFP mRNA LNP preparation (flow cytometry); assay type: cell-based, mouse; conditions: DC2.4 cells
Excerpt: The description is based on peripheral blood mononuclear cells PBMC (Shanghai Oribiotech Co., Ltd.), human peripheral blood leukemia T cell Jurkat (ATCC), tumor infiltrating lymphocyte TIL (isolated from resected tumor tissue of a liver cancer patient, the preparation method refers to CN114763530A), mouse bone marrow-derived dendritic cells DC2.4 (Cell Bank of the Chinese Academy of Sciences), and Chinese hamster ovary cells CHO (ATCC) were used as verified cell lines for liposome transfection. PBMC, Jurkat, and TIL cells grew in suspension, while DC2.4 and CHO cells grew by adherent culture. All the operation steps of cell culture must strictly abide by the prescribed procedures, and sterile reagents is used to perform aseptic operations under a sterile workbench. The main steps are as follows: • 1) Cell recovery: the preserved cell cryopreservation solution was taken out of the −80° C. refrigerator, and was immediately put in a 37° C. water bath for rapid and continuous shaking, and was completely melted within one minute. Fresh medium was added to the 15 mL centrifuge tube in advance, and the cell solution was added to the centrifuge tube in a biological safety cabinet. A centrifuge tube of the same quality was taken and placed symmetrically in a centrifuge, centrifuged at a low speed at 1200 rpm for 5 min. After centrifugation, the supernatant was removed, and an appropriate amount of medium was slowly added along the tube wall. After the cells were evenly dispersed by blowing gently, the cell suspension was pipette and added to the culture bottle prepared in advance. The state and distribution of the cells in the early stage of recovery were observed under a microscope. The culture bottle was placed in a 5% CO2 incubator and incubated at 37° C., and the recovery time was recorded. • 2) Cell subculture: Under the microscope, if the cell density in the field of view reaches 80%-90%, the cells can be subcultured. Adherent cells need to be digested with trypsin. In order to avoid the residual serum in the culture medium to reduce the activity of trypsin, DPBS solution was added to wash once after removing the original culture medium. After remove the DPBS solution, trypsin was added to degrade the protein at the junction between cells. This separates the cells for further culture. The cells were gently shaked evenly and put into the incubator for digestion for 2 min. Immediately after the digestion was completed, an appropriate amount of medium was added to the original petri dish to terminate the digestion. Finally, the cells were carefully blowed off using a pipette and blowed until they are evenly dispersed, and then inoculated and subcultured at a certain ratio according to the experimental requirements. […]
• 1) DC2.4 cells recovery: the frozen DC2.4 cells were taken out from the −80° C. refrigerator, put in a 37° C. water bath to quickly thaw the cells, added to the preheated medium after thawing, centrifuged at 1200 rpm for 5 min, the supernatant was discarded, and an appropriate amount of DMEM medium with 10% FBS was added to resuspend the recovered DC2.4, and placed in a 5% CO2 incubator at 37° C. for activation and culture. • 2) According to the experimental arrangement, DC2.4 cells were plated on a 24-well plate one day in advance for cell transfection. Through cell counting, the number of cells and cell viability were recorded, the cell suspension were taken at 2×10^5 cells per well, then a certain volume of DMEM medium containing 10% FBS was added and mixed evenly, 1 mL of mixture was added to each well for subsequent transfection experiment. • 3) After 24 hours, the medium was gently removed 30 minutes in advance by a pipette, 1 mL DPBS was added to each well for washing and then removed, then 300 μL serum-free Opti-MEM medium was added to each well for subsequent transfection experiments.
Subsequent steps are the same as the transfection protocol for PBMC cells. […]

[2] = Size and polydispersity index PDI of lipid nanoparticles (Malvern Zetasizer Nano ZS); assay type: physicochemical; conditions: LNP ionizable lipid/DOPE/cholesterol/DSPE-PEG2000 35/16/46.5/2.5 mol% encapsulating EGFP mRNA
Method: The ionizable lipid compound of Example 1 was dissolved in ethanol with DOPE, cholesterol and DSPE-PEG2000 (all purchased from AVT (Shanghai) Pharmaceutical Technology Co., Ltd.) at a molar ratio of 35:16:46.5:2.5 to prepare ethanol lipid solution, and enhanced green fluorescent protein (EGFP) mRNAs (Shanghai Maximna Pharmaceutical Engineering Co., Ltd., JN-4201) were diluted in 20 mM citrate buffer (pH=6.1) to obtain mRNA aqueous solution. Ethanol lipid solution and mRNA aqueous solution were mixed at a volume ratio of 1:3 by using a microfluidic device (Micro&Nano (Shanghai) Instrument Technology Co., Ltd., model: INano™ML), LNPs were prepared with a weight ratio of approximately 10:1 between total lipids and mRNAs. The medium was replaced by ultrafiltration, ethanol was removed and volumed with DPBS. Finally, the lipid nanoparticles were filtered through a 0.2 μm sterile filter to obtain a LNP formulation encapsulating eGFP mRNA using ionizable lipid/DOPE/cholesterol/DSPE-PEG2000 (35/16/46.5/2.5 mol %), the concentration of mRNAs being 0.002 mg/mL-0.5 mg/mL.
Using Malvern Zetasizer Nano ZS (Malvern UK), the size and polydispersity index PDI of lipid nanoparticles were measured at […].

[3] = EGFP mRNA LNP, 200 ng mRNA per well, flow cytometry

CCCCCCCCCCCCCCCCC(O)CN(CCOCCOCCOCCN(CCOCCOCCOCCN(CC(O)CCCCCCCCCCCCCCCC)CC(O)CCCCCCCCCCCCCCCC)CCN1CCN(CCO)CC1)CC(O)CCCCCCCCCCCCCCCC [L-C18]
Entrapment Efficiency [1]: 91.70% | Cell Viability (DC2.4 cells; [3]): 98.6% | Positive Rate (EGFP) (DC2.4 cells; [3]): 59.7% | Fluorescence Intensity (DC2.4 cells; EGFP mRNA expression level, normalized based on the sample with the highest fluorescence intensity): 0.02 | PDI [2]: 0.182 | Particle Size ([2]; in nm (unit assumed)): 124.0
